Laboratory results published in US20210186954A1, “DRUG PRODUCTS FOR NASAL ADMINISTRATION AND USES THEREOF” (Summit Biosciences Inc., priority 2018, published 2021).
Like-named read-outs stand apart in the source and are kept apart here.

How the values were obtained:
[1] = Dissolution of chlorobutanol in water during preparation of F1(d); assay type: physicochemical
Procedure: Chlorobutanol dissolves into water very slowly at ambient temperatures. Therefore during the preparation of F1(d), USP-PW was heated. After 18 minutes, the solution was clear and all of the chlorobutanol was completely dissolved.

[2] = test system: patients with suspected opioid overdose; settings: cited from earlier work
[3] = 2 mg nasal solution dose; predicted by Wermeling; cited from earlier work
[4] = test system: patients with suspected narcotic overdose; settings: cited from earlier work
[5] = test system: suspected opiate overdose; settings: 2 mg IN, cited from earlier work
overdose events = settings: 399 overdose events where naloxone was used; cited from earlier work
opiate addicts = settings: nasal vs intravenous route; cited from earlier work
[6] = test system: suspected opiate overdose; settings: cited from earlier work
heroin overdose = settings: IM naloxone; cited from earlier work

| Structure (SMILES) | Dissolution into water ([1]; ambient temperatures) | Time until solution clear and chlorobutanol completely dissolved ([1]; heated USP-PW, preparation of F1(d)) [min] | mean interval from EMS arrival to respiratory rate ≥10 breaths/min ([2]; naloxone 0.4 mg IV) [min] | mean interval from EMS arrival to respiratory rate ≥10 breaths/min ([2]; naloxone 0.8 mg SQ) [min] | Cmax [3] [ng/mL] | tmax [3] | clinical response ([4]; IN group) [%] | clinical response ([4]; IV group) [%] | responders responding to IN naloxone alone ([5]; 43 of 52 responders) [%] | median time from administration of IN naloxone to awakening [5] [min] | overdose events reported reversed (overdose events) [%] | effectiveness of nasal administration (opiate addicts) | more than 10 spontaneous respirations per minute within 8 minutes ([6]; 2 mg IM) [%] | more than 10 spontaneous respirations per minute within 8 minutes ([6]; 2 mg IN, mucosal atomizer) [%] | needing rescue naloxone ([6]; IM group) [%] | needing rescue naloxone ([6]; IN group) [%] | patients given supplementary naloxone (heroin overdose) [%] |
| --- | --- | --- | --- | --- | --- | --- | --- | --- | --- | --- | --- | --- | --- | --- | --- | --- | --- |
| CC(C)(O)C(Cl)(Cl)Cl [Chlorobutanol, 1,1,1-trichloro-2-methylpropan-2-ol] | very slowly | 18 |  |  |  |  |  |  |  |  |  |  |  |  |  |  |  |
| C=CCN1CC[C@]23c4c5ccc(O)c4O[C@H]2C(=O)CC[C@@]3(O)[C@H]1C5 [naloxone, 17-allyl-4,5a-epoxy-3,14-dihydroxymorphinan-6-one] |  |  | 9.3 ± 4.2 | 9.6 ± 4.58 | 3 to 5 | approximately 20 minutes | 66 | 56 | 83 | 3.0 | 89 | as effective as the intravenous route | 82 | 63 | 13 | 26 | 4.5 |
